This note sets out measurements from ChEMBL document CHEMBL1155799 (Bioorg Med Chem, 2008).

The target of assay [1] is T1, 5-hydroxytryptamine receptor 2C (Homo sapiens, UniProt P28335).
T1 sequence (P28335 whole entry): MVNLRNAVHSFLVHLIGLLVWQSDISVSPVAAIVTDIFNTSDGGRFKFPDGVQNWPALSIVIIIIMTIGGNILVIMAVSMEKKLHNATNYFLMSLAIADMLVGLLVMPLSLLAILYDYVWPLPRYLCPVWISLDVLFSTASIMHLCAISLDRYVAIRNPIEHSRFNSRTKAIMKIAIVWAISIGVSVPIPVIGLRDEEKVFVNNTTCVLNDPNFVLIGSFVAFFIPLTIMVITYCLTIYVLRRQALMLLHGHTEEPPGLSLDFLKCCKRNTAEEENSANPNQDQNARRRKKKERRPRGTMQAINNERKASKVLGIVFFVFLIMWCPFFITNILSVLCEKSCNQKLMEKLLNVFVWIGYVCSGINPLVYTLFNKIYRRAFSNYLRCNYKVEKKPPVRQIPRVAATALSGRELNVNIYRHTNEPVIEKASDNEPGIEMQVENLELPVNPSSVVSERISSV
Description: Binding affinity to human cloned 5HT2C receptor

Assay [2] has as its target T2, 5-hydroxytryptamine receptor 1A (Homo sapiens, UniProt P08908).
T2 sequence (P08908 whole entry): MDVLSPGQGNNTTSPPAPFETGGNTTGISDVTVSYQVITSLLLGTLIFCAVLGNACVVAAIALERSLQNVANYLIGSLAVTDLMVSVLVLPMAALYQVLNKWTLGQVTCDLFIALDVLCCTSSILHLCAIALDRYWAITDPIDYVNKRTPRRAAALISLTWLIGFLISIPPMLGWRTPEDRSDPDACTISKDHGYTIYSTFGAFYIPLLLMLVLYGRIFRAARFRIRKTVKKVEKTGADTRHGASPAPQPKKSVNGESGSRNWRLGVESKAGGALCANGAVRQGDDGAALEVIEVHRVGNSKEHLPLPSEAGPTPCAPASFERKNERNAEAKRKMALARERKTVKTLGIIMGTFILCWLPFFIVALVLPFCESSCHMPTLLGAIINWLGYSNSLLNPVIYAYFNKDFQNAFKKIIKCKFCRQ
Description: Binding affinity to human cloned 5HT1A receptor

Assay [3] has as its target 5-hydroxytryptamine receptor 2A (Homo sapiens, UniProt P28223).
Description: Binding affinity to human cloned 5HT2A receptor
For assay [4], the target named is 5-hydroxytryptamine receptor 2B (Homo sapiens, UniProt P41595).
Description: Binding affinity to human cloned 5HT2B receptor
For assay [5], the target named is Sodium-dependent dopamine transporter (Homo sapiens, UniProt Q01959).
Description: Binding affinity to human DAT
For the next assay, the species on record is Mus musculus. Briefly: animal or person. The assay is classed as functional. The following applies: Swiss Webster, 0.5 h.
Assay [6] has as its target 5-hydroxytryptamine receptor 6 (Homo sapiens, UniProt P50406).
Description: Binding affinity to human cloned 5HT6 receptor
Another assay deals with D(3) dopamine receptor (Homo sapiens, UniProt P35462).
The next assay addresses T3, D(4) dopamine receptor (Homo sapiens, UniProt P21917).
T3 sequence (P21917 whole entry): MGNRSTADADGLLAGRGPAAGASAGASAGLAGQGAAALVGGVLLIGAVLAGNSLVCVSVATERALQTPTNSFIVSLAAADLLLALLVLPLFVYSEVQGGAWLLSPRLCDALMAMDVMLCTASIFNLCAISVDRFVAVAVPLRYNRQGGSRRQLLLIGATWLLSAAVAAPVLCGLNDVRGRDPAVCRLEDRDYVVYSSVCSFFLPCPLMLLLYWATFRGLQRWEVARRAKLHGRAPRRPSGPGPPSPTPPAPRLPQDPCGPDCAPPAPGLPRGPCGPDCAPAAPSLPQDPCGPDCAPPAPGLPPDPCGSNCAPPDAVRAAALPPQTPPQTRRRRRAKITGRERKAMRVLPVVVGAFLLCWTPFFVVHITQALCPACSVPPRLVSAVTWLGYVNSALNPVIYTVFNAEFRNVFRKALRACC

Assay [7] deals with T4, Muscarinic acetylcholine receptor M1 (Homo sapiens, UniProt P11229).
T4 sequence (P11229 whole entry): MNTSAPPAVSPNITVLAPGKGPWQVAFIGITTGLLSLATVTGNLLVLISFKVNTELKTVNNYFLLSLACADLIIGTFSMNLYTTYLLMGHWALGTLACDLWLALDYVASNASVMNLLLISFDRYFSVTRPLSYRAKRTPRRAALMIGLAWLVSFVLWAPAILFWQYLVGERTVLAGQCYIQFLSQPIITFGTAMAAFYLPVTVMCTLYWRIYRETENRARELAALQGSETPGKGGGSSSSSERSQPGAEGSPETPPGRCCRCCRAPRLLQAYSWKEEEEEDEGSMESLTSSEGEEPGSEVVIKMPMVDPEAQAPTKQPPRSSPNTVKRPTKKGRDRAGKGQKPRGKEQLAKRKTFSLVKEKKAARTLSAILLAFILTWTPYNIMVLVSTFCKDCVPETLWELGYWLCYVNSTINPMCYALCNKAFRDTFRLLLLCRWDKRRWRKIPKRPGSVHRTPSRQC
Description: Binding affinity to human cloned muscarinic M1 receptor

Where only a bound is given, the exact number is not on record here.

Sequence of 5-hydroxytryptamine receptor 2A (P28223 whole entry): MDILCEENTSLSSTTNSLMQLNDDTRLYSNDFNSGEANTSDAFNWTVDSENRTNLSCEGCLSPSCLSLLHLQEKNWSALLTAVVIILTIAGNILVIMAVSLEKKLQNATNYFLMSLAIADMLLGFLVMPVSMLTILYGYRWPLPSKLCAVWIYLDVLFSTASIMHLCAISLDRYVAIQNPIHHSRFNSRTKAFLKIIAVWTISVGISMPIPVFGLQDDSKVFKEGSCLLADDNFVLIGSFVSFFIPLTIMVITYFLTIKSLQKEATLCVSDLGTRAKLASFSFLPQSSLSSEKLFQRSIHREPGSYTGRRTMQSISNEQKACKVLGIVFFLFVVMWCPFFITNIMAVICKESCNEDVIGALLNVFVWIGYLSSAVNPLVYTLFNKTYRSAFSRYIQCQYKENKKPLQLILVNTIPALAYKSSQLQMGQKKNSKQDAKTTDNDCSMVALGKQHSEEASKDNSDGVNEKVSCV
Sequence of 5-hydroxytryptamine receptor 6 (P50406 whole entry): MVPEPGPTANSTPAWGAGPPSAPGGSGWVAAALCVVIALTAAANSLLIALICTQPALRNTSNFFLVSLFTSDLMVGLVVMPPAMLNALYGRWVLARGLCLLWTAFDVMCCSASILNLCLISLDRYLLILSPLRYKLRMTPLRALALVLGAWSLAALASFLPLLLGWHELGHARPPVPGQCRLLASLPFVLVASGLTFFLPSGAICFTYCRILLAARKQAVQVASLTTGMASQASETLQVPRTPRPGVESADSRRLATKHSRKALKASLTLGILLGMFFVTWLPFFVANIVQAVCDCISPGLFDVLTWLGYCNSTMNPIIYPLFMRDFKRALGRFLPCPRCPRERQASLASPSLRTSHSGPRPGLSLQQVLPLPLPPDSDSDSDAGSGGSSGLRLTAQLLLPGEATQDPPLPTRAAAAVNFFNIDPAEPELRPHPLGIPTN
Sequence of D(3) dopamine receptor (P35462 whole entry): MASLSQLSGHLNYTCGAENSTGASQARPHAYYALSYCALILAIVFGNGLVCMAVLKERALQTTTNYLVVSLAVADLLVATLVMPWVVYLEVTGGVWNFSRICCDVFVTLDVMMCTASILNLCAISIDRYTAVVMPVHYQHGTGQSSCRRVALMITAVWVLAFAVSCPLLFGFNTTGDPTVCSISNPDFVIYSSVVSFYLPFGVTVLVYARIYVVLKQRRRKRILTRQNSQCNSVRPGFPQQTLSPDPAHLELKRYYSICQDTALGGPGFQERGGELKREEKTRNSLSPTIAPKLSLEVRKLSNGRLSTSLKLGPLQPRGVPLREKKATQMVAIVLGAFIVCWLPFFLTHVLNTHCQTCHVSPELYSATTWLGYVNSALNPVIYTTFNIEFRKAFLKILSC
Sequence of 5-hydroxytryptamine receptor 2B (P41595 whole entry): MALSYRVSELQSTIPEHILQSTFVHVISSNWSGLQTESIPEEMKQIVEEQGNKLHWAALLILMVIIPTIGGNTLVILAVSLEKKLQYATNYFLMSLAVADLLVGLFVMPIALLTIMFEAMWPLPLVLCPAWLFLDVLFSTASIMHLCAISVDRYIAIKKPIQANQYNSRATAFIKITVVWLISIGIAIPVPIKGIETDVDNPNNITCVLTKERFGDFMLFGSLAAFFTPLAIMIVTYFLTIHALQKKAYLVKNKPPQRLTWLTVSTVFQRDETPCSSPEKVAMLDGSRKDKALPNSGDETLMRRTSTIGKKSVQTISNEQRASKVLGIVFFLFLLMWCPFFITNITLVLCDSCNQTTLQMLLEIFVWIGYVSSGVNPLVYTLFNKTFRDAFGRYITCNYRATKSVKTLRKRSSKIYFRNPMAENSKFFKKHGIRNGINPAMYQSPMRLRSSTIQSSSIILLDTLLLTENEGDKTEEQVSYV
Sequence of Sodium-dependent dopamine transporter (Q01959 whole entry): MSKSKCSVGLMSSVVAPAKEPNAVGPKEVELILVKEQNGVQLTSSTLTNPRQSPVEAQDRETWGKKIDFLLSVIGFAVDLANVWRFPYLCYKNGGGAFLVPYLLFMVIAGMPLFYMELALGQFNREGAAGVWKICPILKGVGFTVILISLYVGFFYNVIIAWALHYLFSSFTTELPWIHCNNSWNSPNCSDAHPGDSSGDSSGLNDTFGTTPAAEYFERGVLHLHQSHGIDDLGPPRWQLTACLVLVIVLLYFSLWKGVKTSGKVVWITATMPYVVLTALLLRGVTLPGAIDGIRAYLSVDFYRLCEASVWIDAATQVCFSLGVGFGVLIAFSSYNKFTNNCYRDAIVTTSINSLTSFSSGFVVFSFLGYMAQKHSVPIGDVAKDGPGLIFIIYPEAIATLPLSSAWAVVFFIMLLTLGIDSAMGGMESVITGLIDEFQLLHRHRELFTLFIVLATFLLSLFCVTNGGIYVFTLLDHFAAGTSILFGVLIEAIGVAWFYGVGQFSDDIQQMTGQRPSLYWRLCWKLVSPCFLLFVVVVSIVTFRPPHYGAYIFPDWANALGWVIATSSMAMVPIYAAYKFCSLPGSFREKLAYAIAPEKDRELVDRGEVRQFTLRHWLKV
Description for D(3) dopamine receptor: Binding affinity to human cloned dopamine D3 receptor
Description for D(4) dopamine receptor: Binding affinity to human cloned dopamine D4 receptor
Description for Mus musculus: Blockade of apomorphine-induced climbing stereotypy in Swiss Webster mouse after 30 mins

One may read the Ki as a measure of affinity in units of concentration, obtained from inhibition or displacement. With `O=C(CCCN1C2CCC1CC(c1ccccc1)C2)c1ccc(F)cc1` (stereo not given), the Ki in assay [1] came to 1060 nM; in assay [2], 414 nM; in assay [3], 106 nM.
The term ED50 denotes the midpoint of the dose-response relation. On to `O=C(CCCN1CCCN(c2ccc(Cl)cc2)CC1)c1ccc(F)cc1`, for which the results for the Ki in assay [4], in [5] and in assay [6] were 495 nM, 1150 nM and 296 nM, respectively. The compound also yielded a 50% effective dose (ED50) in the assay listed under Mus musculus of 35.8 µmol/kg.
Take `O=C(CCCN1CC2CCC(C1)N2c1ccccc1)c1ccc(F)cc1`: the values for the Ki on D(3) dopamine receptor and at D(4) dopamine receptor were 600 nM and 2100 nM, respectively.
With `O=C(CCCN1CC2CC1CN2c1ccc(Cl)cc1)c1ccc(F)cc1` (stereo not given), the Ki on D(3) dopamine receptor was 220 nM; at D(4) dopamine receptor, 520 nM.
In the case of `O=C(CCCN1CCN(c2ccc(Cl)cc2)CC1)c1ccc(F)cc1`, the Ki worked out at 3550 nM in [1] and 90.9 nM in assay [2].
Take `O=C(CCCN1C2CCC1CC(O)(c1ccccc1)C2)c1ccc(F)cc1` (stereo not given): the Ki is more than 10000 nM in [1], 37.6 nM in assay [2] and 12.3 nM in assay [3].
As for `O=C(CCCN1CCC(O)(c2ccc(Cl)cc2)C1)c1ccc(F)cc1` (single isomer, unassigned; (+)), in assay [2], the Ki turned out to be 772 nM.
Take `O=C1Cc2cc(CCN3CCN(c4nsc5ccccc45)CC3)c(Cl)cc2N1` [ZIPRASIDONE]: the Ki is 5100 nM in assay [7], 2.5 nM in assay [2] and 76 nM in [6].
